Results taken from paper PMC5463993, “Identification of an Efflux Transporter LmrB Regulating Stress Response and Extracellular Polysaccharide Synthesis in Streptococcus mutans” (Frontiers in Microbiology, 2017).

Molecular target: T1, LmrB (Streptococcus mutans, UniProt Q8DUY5)
T1 construct: full-length (454 aa) with His-tag from pET28a, expressed in E. coli BL21 (DE3) cells; tested in whole cells
Experiment: fluorometric efflux assay in E. coli BL21 (DE3) expressing LmrB versus empty vector
Format: cell-based
Settings: EtBr-loaded whole cells in PBS; CCCP (100 uM) as control blocker

T1 sequence (Q8DUY5 entry or part of it): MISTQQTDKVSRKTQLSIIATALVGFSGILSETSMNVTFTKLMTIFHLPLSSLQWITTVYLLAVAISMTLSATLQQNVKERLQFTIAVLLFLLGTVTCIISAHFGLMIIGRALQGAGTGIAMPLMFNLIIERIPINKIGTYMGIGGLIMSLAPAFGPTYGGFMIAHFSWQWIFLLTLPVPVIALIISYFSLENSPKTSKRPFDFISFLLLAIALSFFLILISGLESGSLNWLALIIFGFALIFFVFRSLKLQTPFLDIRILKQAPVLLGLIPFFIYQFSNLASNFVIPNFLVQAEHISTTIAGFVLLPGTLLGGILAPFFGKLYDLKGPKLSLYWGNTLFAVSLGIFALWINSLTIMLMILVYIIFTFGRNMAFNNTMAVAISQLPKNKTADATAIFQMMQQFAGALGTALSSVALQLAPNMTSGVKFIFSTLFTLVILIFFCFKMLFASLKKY

## CC[n+]1c(-c2ccccc2)c2cc(N)ccc2c2ccc(N)cc21 [Ethidium bromide]
  fluorometric efflux assay in E. coli BL21 (DE3) expressing LmrB versus empty vec: the efflux activity of E. coli was higher for the bacterial culture harboring cloned pET28a-lmrB
